Test system: gene-editing MTAP-/- human colon cancer cell strain HCT116
Experiment: Efficacy in MTAP-/- HCT116 subcutaneous xenograft mouse model
Assay type: in vivo, Balb/c nude mice
Conditions: 10 mg/kg, PO, qd, 28 days
Procedure: The blank group contained 40% PEG400 normal saline with 2% DMSO. […] The test substance was intragastrically administered at 10 mg/kg once daily, and MRTX1719 was intragastrically administered at 50 mg/kg once daily. Model control: The vehicle (2% DMSO + 40% PEG400 + 58% normal saline) was intragastrically administered at a dose of 10 mL/kg once daily. Administration was performed for 28 days in total. […] The mice were euthanized on the day when the last administration was completed. […] In the formula, VTt represents the tumor volume of the treatment group at each measurement, and VT0 represents the tumor volume measured when the treatment group is grouped; VCt represents the tumor volume of the vehicle group at each measurement (same as VTt), and VC0 represents the tumor volume measured when the vehicle group is grouped. Data were analyzed using GraphPad Prism 9.0 software and expressed as Mean ± SEM (standard error). Pairwise comparisons between each administration group and the control group were performed using one-way analysis of variance (ANOVA). Variance homogeneity was determined using the Brown-Forsythe method, and variance heterogeneity was determined using the Dunnett's T3 method. Table 7. Efficacy evaluation in HCT116 subcutaneous xenograft mouse model

CN(C(=O)c1cc2c(cc1F)nc(N)c1cnn(C)c12)[C@@H]1COc2cc(C#Cc3cnn(C)c3)ccc21 [Compound 5A, (S)-4-amino-7-fluoro-N,1-dimethyl-N-(6-((1-methyl-1H-pyrazol-4-yl)ethynyl)-2,3-dihydrobenzofuran-3-yl)-1H-pyrazolo[4,3-c]quinoline-8-carboxamide]
TGI: 82.25%
Tumor volume: 378.72 mm^3

— patent publication EP4755886A1 (Chengdu Chipscreen Pharmaceutical Ltd., priority 2023, dated 2025)
